The values that follow come from publication PMC6301713, “Zincophorin – biosynthesis in Streptomyces griseus and antibiotic properties” (GMS Infectious Diseases, 2016).

A short description of series [1]: Cytotoxicity assay, crystal violet staining. The class given is cell-based, human. The conditions noted are these: human. Here is the method:
(§1) The cytotoxicity of zincophorin, methyl zincophorin, daptomycin (Chemos GmbH, Regenstauf, Germany), and imipenem (Sigma-Aldrich GmbH, Taufkirchen, Germany) was evaluated as described recently, [20]. Briefly, serial twofold compounds concentration were prepared in Eagle’s minimum essential medium supplemented with 2 mM L-glutamine or Dulbecco’s Modified Eagle Medium (Lonza Group Ltd., Basel, Switzerland) and added to three-day-old confluent human lung carcinoma cells (A549; Institute of Molecular Virology, University of Münster, Germany) and Madin-Darby canine kidney cell (MDCK; Friedrich-Loeffler Institute, Riems, Germany) monolayers grown in 96-well plates (Greiner bio-one GmbH, Frickenhausen, Germany), respectively. […] After dye elution and optical density measurement the 50% cytotoxic concentration (CC50) was calculated.

In series [2] the test system is S. pneumoniae clinical isolate 6937. The conditions noted are these: clinical isolate 6937, 18 h.
Series [3] has as its system S. pneumoniae clinical isolate 8828.
The subject of series [4] is S. pneumoniae DSM20566.
Series [5] concerns S. pneumoniae DSM20566. The conditions noted are these: DSM20566, 18 h.
The test system of series [6] is S. pneumoniae D39.
In series [7] the test system is S. pneumoniae clinical isolate 8919.
The subject of series [8] is S. pneumoniae clinical isolate 9400. To be noted: clinical isolate 9400, 18 h.
Series [9] has as its system S. pneumoniae clinical isolate 8919. To be noted: clinical isolate 8919, 18 h.
Series [10] can be described thus: Cytotoxicity assay, crystal violet staining. The class given is cell-based, canine. The conditions noted are these: dog. On the procedure: as §1
Series [11] has as its system S. pneumoniae DSM14378.
In series [12] the test system is S. pneumoniae clinical isolate 9400.
The subject of series [13] is S. pneumoniae DSM14378. To be noted: DSM14378, 18 h.
The subject of series [14] is S. pneumoniae D39. To be noted: D39, 18 h.
Series [15] relates to S. pneumoniae clinical isolate 8828. To be noted: clinical isolate 8828, 18 h.
Series [16] has as its system S. pneumoniae clinical isolate 6937.
The test system of series [17] is S. pneumoniae clinical isolate 8919. In words: microbe, parasite or virus in culture. The conditions noted are these: Streptococcus pneumoniae, 18 h, read-out: MIC (8919).
In series [18] the test system is S. pneumoniae DSM14378. In words: microbe, parasite or virus in culture. To be noted: Streptococcus pneumoniae, DSM14378, 18 h, read-out: MIC (DSM14378).
For series [19], the system named is S. pneumoniae D39. In words: microbe, parasite or virus in culture. The conditions noted are these: Streptococcus pneumoniae, D39, 18 h, read-out: MIC (D39).
Series [20] concerns S. pneumoniae clinical isolate 6937. In words: microbe, parasite or virus in culture. To be noted: Streptococcus pneumoniae, 18 h, read-out: MIC (6937).
The test system of series [21] is S. pneumoniae clinical isolate 8828. In words: microbe, parasite or virus in culture. The conditions noted are these: Streptococcus pneumoniae, 18 h, read-out: MIC (8828).
Series [22] has as its system S. pneumoniae clinical isolate 9400. In words: microbe, parasite or virus in culture. To be noted: Streptococcus pneumoniae, 18 h, read-out: MIC (9400).
Series [23] concerns S. pneumoniae DSM20566. In words: microbe, parasite or virus in culture. The conditions noted are these: Streptococcus pneumoniae, DSM20566, 18 h, read-out: MIC (DSM20566).
Another series has as its system Streptococcus pneumoniae. Nature of the series: Antimicrobial assays, all tested S. pneumoniae strains. The conditions noted are these: pneumococci; maximum tested concentration 50 µM; data not shown.
Series [24] relates to human lung carcinoma cells (A549). Nature of the series: Cytotoxicity assay, crystal violet staining. The class given is cell-based. To be noted: A549 cells. Here is the method:
as §1

Series [25] has as its system Clostridium welchii (Clostridium perfringens). To be noted: cited from earlier work.
In series [26] the test system is Madin-Darby canine kidney cell (MDCK). In words: Cytotoxicity assay, crystal violet staining. The class given is cell-based. The conditions noted are these: MDCK cells. Here is the method: as §1
Where [27] appears, read: A549 lung carcinoma cells (confluent monolayers), A549 cells, 72 h, maximum tested 100 µM, mean with standard deviation, read-out: 50% cytotoxic concentration (CC50), A549.
Where [28] appears, read: reference strain DSM20566, biofilm formation inhibited ≥90%, 24 h, TSB, mean with standard deviation.
[29] abbreviates: reference strain D39, biofilm formation inhibited ≥90%, 24 h, TSB, mean with standard deviation.
Where [30] appears, read: reference strain DSM14378, biofilm formation inhibited ≥90%, 24 h, TSB, mean with standard deviation.
[31] abbreviates: clinical isolate 9400, biofilm formation inhibited ≥90%, 24 h, TSB, mean with standard deviation.
[32] abbreviates: clinical isolate 6937, biofilm formation inhibited ≥90%, 24 h, TSB, mean with standard deviation.
Where [33] appears, read: MDCK cells (confluent monolayers), MDCK cells, 72 h, maximum tested 100 µM, mean with standard deviation, read-out: 50% cytotoxic concentration (CC50), MDCK.

Converted amounts (≈) assume the structure as drawn. Like-named read-outs stand apart in the source and are kept apart here.

On to `CCCCCCCCCC(=O)N[C@@H](Cc1c[nH]c2ccccc12)C(=O)N[C@H](CC(N)=O)C(=O)N[C@@H](CC(=O)O)C(=O)N[C@@H]1C(=O)NCC(=O)N[C@@H](CCCN)C(=O)N[C@@H](CC(=O)O)C(=O)N[C@H](C)C(=O)N[C@@H](CC(=O)O)C(=O)NCC(=O)N[C@H](CO)C(=O)N[C@@H]([C@H](C)CC(=O)O)C(=O)N[C@@H](CC(=O)c2ccccc2N)C(=O)O[C@@H]1C` [daptomycin], for which the CC50 at 72 h in series [1] and in series [10] was above 100 µM throughout. In addition, the “MIC (6937)” value in [2] turned out to be 0.48 ± 0.18 µM (≈ 0.778 µg/mL). Besides, the “MBIC (8828)” value in series [3] (clinical isolate 8828, 24 h) stood at 0.48 ± 0.21 µM. Also, in the series on S. pneumoniae DSM20566 [4] (DSM20566, 24 h), the “MBIC (DSM20566)” value turned out to be 1.92 ± 1.07 µM. Besides, in the series on S. pneumoniae DSM20566 [5], the “MIC (DSM20566)” value was 1.94 ± 0.91 µM (≈ 3.14 µg/mL). Also, the “MBIC (D39)” value in the series with S. pneumoniae D39 [6] (D39, 24 h) came out at 6.10 ± 0.79 µM. Further, the “MBIC (8919)” value in series [7] (clinical isolate 8919, 24 h) was found to be 0.49 ± 0.26 µM. In addition, the “MIC (9400)” value in [8] was found to be 0.96 ± 0.56 µM (≈ 1.56 µg/mL). Further, the “MIC (8919)” value in series [9] worked out at 0.31 ± 0.08 µM (≈ 0.502 µg/mL). The “MBIC (DSM14378)” value in the series on S. pneumoniae DSM14378 [11] (DSM14378, 24 h) came to 1.99 ± 1.38 µM. Moreover, the “MBIC (9400)” value in [12] (clinical isolate 9400, 24 h) came out at 2.28 ± 1.81 µM. In addition, the “MIC (DSM14378)” value in the series on S. pneumoniae DSM14378 [13] stood at 0.54 ± 0.18 µM (≈ 0.875 µg/mL). The “MIC (D39)” value in the series on S. pneumoniae D39 [14] worked out at 2.80 ± 0.11 µM (≈ 4.54 µg/mL). Moreover, in series [15], the “MIC (8828)” value stood at 0.86 ± 0.50 µM (≈ 1.39 µg/mL). Moreover, the “MBIC (6937)” value in [16] (clinical isolate 6937, 24 h) is 1.66 ± 1.21 µM.

In the case of `C[C@@H](O)[C@H]1C(=O)N2C(C(=O)O)=C(SCCN=CN)C[C@H]12` [imipenem], the MIC in series [17] was 0.49 ± 0.17 µM (≈ 0.147 µg/mL); with S. pneumoniae DSM14378 [18], 0.02 ± 0.01 µM (≈ 0.00599 µg/mL); in the series on S. pneumoniae D39 [19], 0.02 µM (≈ 0.00599 µg/mL); in series [20], 0.01 µM (≈ 0.00299 µg/mL); in series [21], 0.02 µM (≈ 0.00599 µg/mL); in series [22] it was 0.01 ± 0.01 µM (≈ 0.00299 µg/mL). In addition, in the series on S. pneumoniae DSM20566 [23], the MIC is 0.03 ± 0.01 µM (≈ 0.00898 µg/mL). Moreover, the CC50 at 72 h in series [1] (setting [27]) is above 100 µM. Also, the “MBIC (DSM20566)” value with S. pneumoniae DSM20566 [4] (setting [28]) was determined as 0.06 ± 0.03 µM. For the same molecule, the “MBIC (D39)” value in the series on S. pneumoniae D39 [6] (setting [29]) was found to be 0.07 ± 0.03 µM. Further, the “MBIC (DSM14378)” value in the series with S. pneumoniae DSM14378 [11] (setting [30]) amounted to 0.19 ± 0.01 µM. For the same molecule, the “MBIC (9400)” value in [12] (setting [31]) stood at 0.36 ± 0.02 µM. Further, the “MBIC (6937)” value in series [16] (setting [32]) is 0.22 ± 0.14 µM.

For the molecule `CCC[C@@H](C)/C=C(\C)[C@H](O)[C@H](C)/C=C/CC[C@@H](O)[C@H](C)[C@H](O)[C@H](C)[C@H](O)[C@H](C)[C@H]1O[C@H]([C@H](C)C(=O)OC)CC[C@@H]1C` [zincophorin methyl ester], the CC50 at 72 h in series [1] (setting [27]) and in [10] (setting [33]) was above 100 µM throughout. In addition, the “antibacterial effect (highest concentration without effect)” value in the series with Streptococcus pneumoniae is on record as above 50 µM.

As for `CCCC(C)C=C(C)C(O)C(C)C=CCCC(O)C(C)C(O)C(C)C(O)C(C)C1OC(C(C)C(=O)O)CCC1C` (stereo not drawn) [zincophorin], the MIC turned out to be 0.09 ± 0.01 µM (≈ 0.0512 µg/mL) in [17]; 0.1 ± 0.05 µM (≈ 0.0569 µg/mL) in the series with S. pneumoniae DSM14378 [18]; 0.21 ± 0.11 µM (≈ 0.119 µg/mL) in the series with S. pneumoniae D39 [19]; 0.18 µM (≈ 0.102 µg/mL) in series [20]; 0.22 ± 0.04 µM (≈ 0.125 µg/mL) in series [21]; 0.14 ± 0.07 µM (≈ 0.0796 µg/mL) in series [22]. Further, the MIC in the series on S. pneumoniae DSM20566 [23] was found to be 0.18 ± 0.02 µM (≈ 0.102 µg/mL). The CC50 at 72 h in series [1] (setting [27]) amounted to 1.02 ± 0.63 µM; in [10] (setting [33]) it was 0.63 ± 0.27 µM. In addition, the “cytotoxic effects in words, A549” value in [24] is listed as “strong cytotoxic effects”. Also, the “activity against Clostridium welchii” value in series [25] is “particularly active”. In addition, in series [3] (clinical isolate 8828, biofilm formation inhibited ≥90%, 24 h, TSB, mean with standard deviation), the “MBIC (8828)” value amounted to 0.28 ± 0.06 µM. The “MBIC (DSM20566)” value with S. pneumoniae DSM20566 [4] (setting [28]) was 0.17 ± 0.03 µM. Besides, in the series with S. pneumoniae D39 [6] (setting [29]), the “MBIC (D39)” value is 0.40 ± 0.24 µM. Moreover, the “MBIC (8919)” value in series [7] (clinical isolate 8919, biofilm formation inhibited ≥90%, 24 h, TSB, mean with standard deviation) stood at 0.15 ± 0.01 µM. In [26], the “cytotoxic effects in words, MDCK” value is on record as “strong cytotoxic effects”. For the same molecule, in the series with S. pneumoniae DSM14378 [11] (setting [30]), the “MBIC (DSM14378)” value was 0.13 ± 0.06 µM. Moreover, in series [12] (setting [31]), the “MBIC (9400)” value was 0.36 ± 0.01 µM. In addition, the “MBIC (6937)” value in [16] (setting [32]) came out at 0.46 ± 0.25 µM.
